Target: 5'-AMP-activated protein kinase catalytic subunit alpha-2 (Homo sapiens, UniProt P54646)
Assay: Activation Assay
Details: 37 °C
Description: After the incubation, 20 μl of a 40% glyoxal solution (Nacalai Tesque) was added to each well, and then cells were fixed by leaving to stand at room temperature for 30 minutes. Thereafter, the supernatant was removed by centrifuging the plate, and then 0.1% Triton X-100-containing Phosphate-Buffered Saline (PBS) was added to each well by 20 followed by incubating at room temperature for 10 minutes. […] The blocking solution was removed by centrifuging, with the exception of the blocking solution by centrifugation, and then a blocking solution which was diluted such that the amount of phosphorylation antibody (manufactured by Cell Signaling Technology, Inc) of ACC Ser79 as a primary antibody is 1/500 was added to each well by 10 followed by leaving to stand at 4° C. overnight. The following day, the reaction liquid was removed by centrifuging the plate, and then 0.05% Tween-20-containing Tris-Buffered Saline (TBS) (manufacture by Thermo Scientific Inc.; used in 1× in which 20×TBS Tween-20 was diluted with ion-exchange water) was added to each well by 25 followed by washing each well by centrifugal removal. The washing of each well was repeated for a total of 3 times. […]

5'-AMP-activated protein kinase catalytic subunit alpha-2, sequence (P54646 whole entry): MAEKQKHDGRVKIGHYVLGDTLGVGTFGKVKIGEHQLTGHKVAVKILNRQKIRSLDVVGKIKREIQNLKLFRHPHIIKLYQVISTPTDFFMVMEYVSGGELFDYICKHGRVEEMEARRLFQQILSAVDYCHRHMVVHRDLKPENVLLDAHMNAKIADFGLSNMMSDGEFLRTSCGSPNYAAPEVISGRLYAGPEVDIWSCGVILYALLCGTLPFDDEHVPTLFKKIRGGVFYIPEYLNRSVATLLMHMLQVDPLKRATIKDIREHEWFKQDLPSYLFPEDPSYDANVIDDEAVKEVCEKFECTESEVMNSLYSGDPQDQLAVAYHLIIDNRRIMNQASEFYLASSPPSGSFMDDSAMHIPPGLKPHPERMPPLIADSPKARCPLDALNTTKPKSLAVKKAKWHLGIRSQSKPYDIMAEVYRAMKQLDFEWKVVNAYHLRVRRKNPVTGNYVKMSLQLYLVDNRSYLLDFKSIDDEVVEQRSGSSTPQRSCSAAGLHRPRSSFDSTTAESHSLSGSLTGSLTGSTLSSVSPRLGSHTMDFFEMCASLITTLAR

CCOc1cnc(CN2CCC(c3ccc4cc(C(=O)N5CCN(Cc6ccc(C#N)cc6)CC5)n(C)c4c3)CC2)cn1 [US9428501, 69]
EC50: 1.8 nM

— BindingDB's records for patent US9428501 (Astellas Pharma Inc, 2016)
